For one experiment, the target named is T1, ER-α in MCF-7 cells (Homo sapiens, UniProt P03372).
T1 construct: endogenous in cells; host or cells: MCF-7
T1 sequence (P03372 1-595): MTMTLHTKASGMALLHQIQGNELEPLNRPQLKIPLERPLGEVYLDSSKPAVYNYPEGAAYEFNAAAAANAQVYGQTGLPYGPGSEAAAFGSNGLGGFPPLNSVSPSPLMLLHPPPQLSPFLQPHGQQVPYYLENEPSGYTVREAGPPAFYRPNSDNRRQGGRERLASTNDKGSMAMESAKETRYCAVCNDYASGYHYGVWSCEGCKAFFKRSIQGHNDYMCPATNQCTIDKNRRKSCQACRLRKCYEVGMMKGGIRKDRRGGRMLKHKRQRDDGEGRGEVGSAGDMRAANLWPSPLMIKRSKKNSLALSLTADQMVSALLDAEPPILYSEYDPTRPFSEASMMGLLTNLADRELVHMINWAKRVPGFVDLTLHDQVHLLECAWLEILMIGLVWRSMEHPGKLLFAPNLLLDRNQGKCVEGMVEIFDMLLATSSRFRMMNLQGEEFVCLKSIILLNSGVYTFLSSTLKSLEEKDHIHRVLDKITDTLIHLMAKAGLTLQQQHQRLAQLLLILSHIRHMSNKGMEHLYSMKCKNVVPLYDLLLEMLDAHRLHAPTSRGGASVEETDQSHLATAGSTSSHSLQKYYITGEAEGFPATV
In words: Breast Cancer Cell ER-α In Cell Western Assay (SP1). It is filed as cell-based. The conditions noted are these: 4 or 24 hr post compound addition; for Emax: MCF7, SP1 antibody, read-out: ER-α In Cell Western Assay (SP1) Max Response; for DC50: SP1 antibody, read-out: ER-α In Cell Western Assay (SP1) IC50. Here is the method: MCF-7 cells were adjusted to a concentration of 200,000 cells per mL in RPMI containing 10% charcoal-stripped FBS and 20 mM HEPES. 16 microliters of the cell suspension (3200 cells) was added to each well of a poly-D-lysine 384 well plate, and the cells were incubated overnight to allow the cells to adhere. The following day an eleven point, serial semilog dilution of each compound was added to the cells in 16 μL at a final concentration ranging from 0.3-0.000003 μM. At 4 or 24 hr post compound addition, the cells were fixed (10% formalin in PBS) for 20 minutes. Cells were permeablized in PBS 0.1% Triton and blocked with LICOR blocking buffer (50 μl/well, 90′). The wells were then incubated overnight at 4° C. with SP1 rabbit monoclonal Ab (Thermo Scientific) diluted 1:1000 in LICOR blocking buffer/0.1% Tween-20. Wells which were treated with blocking buffer with Tween but no antibody were used as a background control. Wells were washed with 0.1% Tween-20/PBS and then incubated in goat anti-rabbit IRDye™ 800CW (LICOR Inc.; 1:10000) and DRAQ5 DNA dye (1:2000 for 2 mM stock) diluted in LICOR blocking buffer containing 0.1% Tween-20 and 0.01% SDS for 60 minutes. Cells were washed (50 μl/well, 5′ each) in 0.1% Tween-20/PBS. Plates were scanned on a LICOR Odyssey infrared imaging system. Integrated intensities in the 800 nm channel and 700 nm channel were measured to determine levels of ER and DNA respectively. Percent ER levels were determined as follows: (Integrated intensity 800 nm sample/integrated intensity 700 nm sample)/(Integrated intensity 800 nm untreated cells/integrated intensity 700 nm untreated cells)×100=% ER levels. […]

For another experiment, the system named is MCF-7 cells. Description: Breast Cancer Cell Viability Assays (MCF-7, CellTiter-Glo). In kind it is cell-based. The conditions noted are these: 5 days' compound exposure; for IC50: Homo sapiens, MCF7, 120 h. Here is the method: MCF-7 cells were adjusted to a concentration of 20,000 cells per mL in RPMI containing 10% FBS and 20 mM HEPES. 16 microliters of the cell suspension (320 cells) was added to each well of a 384 well plate, and the cells were incubated overnight to allow the cells to adhere. The following day an eleven point, serial semilog dilution of each compound was added to the cells in 16 μL at a final concentration ranging from 0.3-0.000003 μM. After 5 days' compound exposure, 16 μL of CellTiter-GLo (Promega, Madison Wis.) was added to the cells, and the relative luminescence units (RLUs) of each well were determined. CellTiter-Glo added to 32 μL of medium without cells was used to obtain a background value. The Percent viability of each sample was determined as follows: (RLU sample−RLU background/RLU untreated cells−RLU background)×100=% viability. […]
(In ATP-based viability assays light output follows the ATP content of the culture.)

A word on the IC50: it is the concentration that gives 50% inhibition. A higher IC50 goes with weaker potency in that assay. Consider `O=C(O)/C=C/c1ccc(/C(=C(\c2ccccc2)C2CCC2)c2cccc3[nH]ncc23)cc1` [Example 18, (E)-3-(4-((E)-2-Cyclobutyl-1-(1H-indazol-4-yl)-2-phenylvinyl)phenyl)acrylic acid], for which, on ER-α in MCF-7 cells, the Emax was at least 40% and the DC50 was at most 100 nM. Further, in the experiment on MCF-7 cells, the “MCF7 Viability Assay Max Response” value is recorded as “++ (++ = a single % value ≧ 40%)” and the IC50 is at most 100 nM.
As to `CC/C(=C(/c1ccc(/C=C/C(=O)O)cc1)c1ccc2scnc2c1C#N)c1ccccc1` [Example 19, (E)-3-(4-((E)-1-(4-Cyanobenzo[d]thiazol-5-yl)-2-phenylbut-1-en-1-yl)phenyl)acrylic acid], on ER-α in MCF-7 cells, the Emax was at least 40% and the DC50 is at most 100 nM. In the experiment on MCF-7 cells, the “MCF7 Viability Assay Max Response” value was “++ (++ = a single % value ≧ 40%)” and the IC50 is at most 100 nM.
As to `Cc1cscc1/C(=C(\c1ccc(/C=C/C(=O)O)cc1)c1ccc2scnc2c1)C(C)C` [Example 20, (E)-3-(4-((E)-1-(Benzo[d]thiazol-5-yl)-3-methyl-2-(4-methylthiophen-3-yl)but-1-en-1-yl)phenyl)acrylic acid], on ER-α in MCF-7 cells, the Emax is at least 40% and the DC50 is at most 100 nM. Besides, in the experiment on MCF-7 cells, the “MCF7 Viability Assay Max Response” value is given as “++ (++ = a single % value ≧ 40%)” and the IC50 was at most 100 nM.
As for `N#Cc1c(/C(=C(/c2ccccc2)C2CCC2)c2ccc(/C=C/C(=O)O)cc2)ccc2scnc12` [Example 21, (E)-3-(4-((E)-1-(4-Cyanobenzo[d]thiazol-5-yl)-2-cyclobutyl-2-phenylvinyl)phenyl)acrylic acid], at ER-α in MCF-7 cells, the Emax was at least 40% and the DC50 was at most 100 nM. In the experiment with MCF-7 cells, the “MCF7 Viability Assay Max Response” value is recorded as “++ (++ = a single % value ≧ 40%)” and the IC50 was at most 100 nM.
Turning to `O=C(O)/C=C/c1ccc(/C(=C(\c2ccccc2)C2CCC2)c2cc(F)c3[nH]ncc3c2F)cc1` [Example 22, (E)-3-(4-((E)-2-Cyclobutyl-1-(4,7-difluoro-1H-indazol-5-yl)-2-phenylvinyl)phenyl)acrylic acid], at ER-α in MCF-7 cells, the Emax is at least 40% and the DC50 is above 100 nM. In the experiment on MCF-7 cells, the “MCF7 Viability Assay Max Response” value is recorded as “++ (++ = a single % value ≧ 40%)” and the IC50 was above 100 nM.
With `COc1ccc(/C(=C(\c2ccc(/C=C/C(=O)O)cc2)c2ccc3[nH]nc(F)c3c2)C2CCC2)cc1` [Example 23, (E)-3-(4-((E)-2-Cyclobutyl-1-(3-fluoro-1H-indazol-5-yl)-2-(4-methoxyphenyl)vinyl)phenyl)acrylic acid], at ER-α in MCF-7 cells, the Emax was at least 40% and the DC50 was at most 100 nM. For the same compound, in the experiment with MCF-7 cells, the “MCF7 Viability Assay Max Response” value is given as “++ (++ = a single % value ≧ 40%)” and the IC50 was at most 100 nM.
`COc1cccc(/C(=C(\c2ccc(/C=C/C(=O)O)cc2)c2ccc3[nH]nc(F)c3c2)C2CCC2)c1` [Example 24, (E)-3-(4-((E)-2-Cyclobutyl-1-(3-fluoro-1H-indazol-5-yl)-2-(3-methoxyphenyl)vinyl)phenyl)acrylic acid]: at ER-α in MCF-7 cells, the Emax is at least 40% and the DC50 is at most 100 nM. Moreover, in the experiment on MCF-7 cells, the “MCF7 Viability Assay Max Response” value was “++ (++ = a single % value ≧ 40%)” and the IC50 was at most 100 nM.
With `O=C(O)/C=C/c1ccc(/C(=C(\c2ccccc2)C2CCC2)c2ccc3[nH]ncc3c2F)cc1` [Example 25, (E)-3-(4-((E)-2-Cyclobutyl-1-(4-fluoro-1H-indazol-5-yl)-2-phenylvinyl)phenyl)acrylic acid], on ER-α in MCF-7 cells, the Emax was at least 40% and the DC50 is at most 100 nM. In the experiment on MCF-7 cells, the “MCF7 Viability Assay Max Response” value is on record as “++ (++ = a single % value ≧ 40%)” and the IC50 is at most 100 nM.
As for `O=C(O)/C=C/c1ccc(/C(=C(\c2ccccc2)C2CC2)c2ccc3[nH]nc(F)c3c2)cc1` [Example 26, (E)-3-(4-((E)-2-Cyclopropyl-1-(3-fluoro-1H-indazol-5-yl)-2-phenylvinyl)phenyl)acrylic acid], at ER-α in MCF-7 cells, the Emax is at least 40% and the DC50 is at most 100 nM. For the same compound, in the experiment with MCF-7 cells, the “MCF7 Viability Assay Max Response” value is recorded as “++ (++ = a single % value ≧ 40%)” and the IC50 was at most 100 nM.
As to `O=C(O)/C=C/c1ccc(/C(=C(\c2ccccc2)C2CCC2)c2ccc3[nH]c(=O)oc3c2)cc1` [Example 27, (E)-3-(4-((E)-2-Cyclobutyl-1-(2-oxo-2,3-dihydrobenzo[d]oxazol-6-yl)-2-phenylvinyl)phenyl)acrylic acid], at ER-α in MCF-7 cells, the Emax was at least 40% and the DC50 is at most 100 nM. Moreover, in the experiment on MCF-7 cells, the “MCF7 Viability Assay Max Response” value is recorded as “++ (++ = a single % value ≧ 40%)” and the IC50 was at most 100 nM.
Consider `O=C(O)/C=C/c1ccc(/C(=C(\c2ccc(F)cc2Cl)C2CCC2)c2ccc3[nH]c(=O)oc3c2)cc1` [Example 28, (E)-3-(4-((E)-2-(2-Chloro-4-fluorophenyl)-2-cyclobutyl-1-(2-oxo-2,3-dihydrobenzo[d]oxazol-6-yl)vinyl)phenyl)acrylic acid], for which, on ER-α in MCF-7 cells, the Emax is at least 40% and the DC50 was at most 100 nM. In the experiment on MCF-7 cells, the “MCF7 Viability Assay Max Response” value is recorded as “++ (++ = a single % value ≧ 40%)” and the IC50 was at most 100 nM.
`Cc1ccccc1/C(=C(\c1ccc(/C=C/C(=O)O)cc1)c1ccc2[nH]nc(F)c2c1)C1CC1` [Example 29, (E)-3-(4-((E)-2-Cyclopropyl-1-(3-fluoro-1H-indazol-5-yl)-2-(o-tolyl)vinyl)phenyl)acrylic acid]: on ER-α in MCF-7 cells, the Emax is at least 40% and the DC50 was at most 100 nM. Besides, in the experiment with MCF-7 cells, the “MCF7 Viability Assay Max Response” value is “++ (++ = a single % value ≧ 40%)” and the IC50 was at most 100 nM.
`COc1ccc(/C(=C(\c2ccc(/C=C/C(=O)O)cc2)c2ccc3[nH]nc(F)c3c2)C2CC2)cc1` [Example 30, (E)-3-(4-((E)-2-Cyclopropyl-1-(3-fluoro-1H-indazol-5-yl)-2-(4-methoxyphenyl)vinyl)phenyl)acrylic acid]: on ER-α in MCF-7 cells, the Emax is at least 40% and the DC50 was at most 100 nM. Further, in the experiment on MCF-7 cells, the “MCF7 Viability Assay Max Response” value is “++ (++ = a single % value ≧ 40%)” and the IC50 was at most 100 nM.
As for `COc1cccc(/C(=C(\c2ccc(/C=C/C(=O)O)cc2)c2ccc3[nH]nc(F)c3c2)C2CC2)c1` [Example 31, (E)-3-(4-((E)-2-Cyclopropyl-1-(3-fluoro-1H-indazol-5-yl)-2-(3-methoxyphenyl)vinyl)phenyl)acrylic acid], on ER-α in MCF-7 cells, the Emax is at least 40% and the DC50 is at most 100 nM. In the experiment on MCF-7 cells, the “MCF7 Viability Assay Max Response” value is given as “++ (++ = a single % value ≧ 40%)” and the IC50 is at most 100 nM.
`CC/C(=C(/c1ccc(/C=C/C(=O)O)cc1)c1cc(F)c2[nH]ncc2c1F)c1ccccc1` [Example 32, (E)-3-(4-((E)-1-(4,7-Difluoro-1H-indazol-5-yl)-2-phenylbut-1-en-1-yl)phenyl)acrylic acid]: on ER-α in MCF-7 cells, the Emax is at least 40% and the DC50 was above 100 nM. In the experiment on MCF-7 cells, the “MCF7 Viability Assay Max Response” value is given as “++ (++ = a single % value ≧ 40%)” and the IC50 was above 100 nM.
Consider `O=C(O)/C=C/c1ccc(/C(=C(\c2ccccc2)C2CCC2)c2ccc3[nH]ncc3n2)cc1` [Example 33, (E)-3-(4-((E)-2-Cyclobutyl-2-phenyl-1-(1H-pyrazolo[4,3-b]pyridin-5-yl)vinyl)phenyl)acrylic acid], for which, on ER-α in MCF-7 cells, the Emax was at least 40% and the DC50 was at most 100 nM. For the same compound, in the experiment with MCF-7 cells, the “MCF7 Viability Assay Max Response” value is “++ (++ = a single % value ≧ 40%)” and the IC50 is at most 100 nM.
